Assay results as given in BigSolDB 2.1.

SMILES: COc1cc2oc(=O)cc(-c3ccccc3)c2cc1O
- solubility (mole fraction) (in acetone, 283.2 K): 0.00229
- solubility (mole fraction) (in acetone, 288.2 K): 0.00237
- solubility (mole fraction) (in acetone, 293.2 K): 0.00256
- solubility (mole fraction) (in acetone, 299.2 K): 0.0027
- solubility (mole fraction) (in acetone, 303.2 K): 0.00326
- solubility (mole fraction) (in acetone, 308.2 K): 0.0037
- solubility (mole fraction) (in chloroform, 283.2 K): 0.00313
- solubility (mole fraction) (in chloroform, 288.2 K): 0.00361
- solubility (mole fraction) (in chloroform, 293.2 K): 0.00374
- solubility (mole fraction) (in chloroform, 299.2 K): 0.00414
- solubility (mole fraction) (in chloroform, 303.2 K): 0.00457
- solubility (mole fraction) (in chloroform, 308.2 K): 0.0059
- solubility (mole fraction) (in ethyl acetate, 283.2 K): 0.0014
- solubility (mole fraction) (in ethyl acetate, 288.2 K): 0.00153
- solubility (mole fraction) (in ethyl acetate, 293.2 K): 0.00165
- solubility (mole fraction) (in ethyl acetate, 299.2 K): 0.00193
- solubility (mole fraction) (in ethyl acetate, 303.2 K): 0.00204
- solubility (mole fraction) (in ethyl acetate, 308.2 K): 0.00223
- solubility (mole fraction) (in methanol, 283.2 K): 0.000504
- solubility (mole fraction) (in methanol, 288.2 K): 0.000516
- solubility (mole fraction) (in methanol, 293.2 K): 0.000542
- solubility (mole fraction) (in methanol, 299.2 K): 0.000646
- solubility (mole fraction) (in methanol, 303.2 K): 0.000722
- solubility (mole fraction) (in methanol, 308.2 K): 0.000835
- solubility (mole fraction) (in n-hexane, 283.2 K): 3.88e-06
- solubility (mole fraction) (in n-hexane, 288.2 K): 4.03e-06
- solubility (mole fraction) (in n-hexane, 293.2 K): 4.09e-06
- solubility (mole fraction) (in n-hexane, 299.2 K): 4.48e-06
- solubility (mole fraction) (in n-hexane, 303.2 K): 4.76e-06
- solubility (mole fraction) (in n-hexane, 308.2 K): 5.36e-06
- solubility (mole fraction) (in water, 283.2 K): 1.03e-07
- solubility (mole fraction) (in water, 288.2 K): 1.11e-07
- solubility (mole fraction) (in water, 293.2 K): 1.12e-07
- solubility (mole fraction) (in water, 299.2 K): 1.12e-07
- solubility (mole fraction) (in water, 303.2 K): 1.44e-07
- solubility (mole fraction) (in water, 308.2 K): 1.64e-07

SMILES: O=c1cc(-c2ccccc2)c2cc(O)c(O)cc2o1
- solubility (mole fraction) (in acetone, 283.2 K): 0.0022
- solubility (mole fraction) (in acetone, 288.2 K): 0.00228
- solubility (mole fraction) (in acetone, 293.2 K): 0.00237
- solubility (mole fraction) (in acetone, 299.2 K): 0.00246
- solubility (mole fraction) (in acetone, 303.2 K): 0.00266
- solubility (mole fraction) (in acetone, 308.2 K): 0.00299
- solubility (mole fraction) (in chloroform, 283.2 K): 3.75e-08
- solubility (mole fraction) (in chloroform, 288.2 K): 4.16e-08
- solubility (mole fraction) (in chloroform, 293.2 K): 5.93e-08
- solubility (mole fraction) (in chloroform, 299.2 K): 7.09e-08
- solubility (mole fraction) (in chloroform, 303.2 K): 1.04e-07
- solubility (mole fraction) (in chloroform, 308.2 K): 1.71e-07
- solubility (mole fraction) (in ethyl acetate, 283.2 K): 0.000553
- solubility (mole fraction) (in ethyl acetate, 288.2 K): 0.000572
- solubility (mole fraction) (in ethyl acetate, 293.2 K): 0.000616
- solubility (mole fraction) (in ethyl acetate, 299.2 K): 0.000928
- solubility (mole fraction) (in ethyl acetate, 303.2 K): 0.00101
- solubility (mole fraction) (in ethyl acetate, 308.2 K): 0.00139
- solubility (mole fraction) (in methanol, 283.2 K): 0.000986
- solubility (mole fraction) (in methanol, 288.2 K): 0.00102
- solubility (mole fraction) (in methanol, 293.2 K): 0.0011
- solubility (mole fraction) (in methanol, 299.2 K): 0.00129
- solubility (mole fraction) (in methanol, 303.2 K): 0.00147
- solubility (mole fraction) (in methanol, 308.2 K): 0.00179
- solubility (mole fraction) (in n-hexane, 283.2 K): 2.04e-08
- solubility (mole fraction) (in n-hexane, 288.2 K): 4.3e-08
- solubility (mole fraction) (in n-hexane, 293.2 K): 5.6e-08
- solubility (mole fraction) (in n-hexane, 299.2 K): 7.86e-08
- solubility (mole fraction) (in n-hexane, 303.2 K): 8.43e-08
- solubility (mole fraction) (in n-hexane, 308.2 K): 1.35e-07
- solubility (mole fraction) (in water, 283.2 K): 7.94e-08
- solubility (mole fraction) (in water, 288.2 K): 1.39e-07
- solubility (mole fraction) (in water, 293.2 K): 1.92e-07
- solubility (mole fraction) (in water, 299.2 K): 2.39e-07
- solubility (mole fraction) (in water, 303.2 K): 2.51e-07
- solubility (mole fraction) (in water, 308.2 K): 3.57e-07
